Reference: patent US8269000B2, “Substituted pyrimidine and triazine compounds” (Gruenenthal GmbH, priority 2008, dated 2012)
Where a name gives a salt, the structure may show the parent alone.

Key:
human B1R = target: T1, human B1R (Homo sapiens, UniProt P46663); experiment: FLIPR Ca2+ functional study on bradykinin receptor 1 (hB1R CHO K1 cells); format: cell-based; conditions: % inhibition human B1R at 10 μM, read-out: % inh. (hum. B1R) 10 μM
T1 construct: expressed in transfected cells; host or cells: CHO K1 cells
T1 sequence (P46663 1-353): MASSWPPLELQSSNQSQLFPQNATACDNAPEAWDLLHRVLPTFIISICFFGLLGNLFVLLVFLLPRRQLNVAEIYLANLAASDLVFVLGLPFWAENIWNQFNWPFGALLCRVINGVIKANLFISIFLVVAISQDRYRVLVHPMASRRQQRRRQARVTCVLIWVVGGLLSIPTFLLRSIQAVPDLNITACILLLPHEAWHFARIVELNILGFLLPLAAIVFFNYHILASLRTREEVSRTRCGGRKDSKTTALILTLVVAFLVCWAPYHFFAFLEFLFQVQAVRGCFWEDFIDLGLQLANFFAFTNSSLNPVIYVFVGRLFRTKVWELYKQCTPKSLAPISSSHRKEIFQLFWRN
Experimental: The agonistic or antagonistic activity of substances can be quantified on the bradykinin receptor 1 (B1R) of the species human and rat using ectopically expressing cell lines (CHO K1 cells) and with the aid of a Ca^2+-sensitive dye (Fluo-4) using a fluorescent imaging plate reader (FLIPR). The indication in % activation is based on the Ca^2+ signal after addition of Lys-Des-Arg^9-bradykinin (0.5 nM) or Des-Arg^9-bradykinin (100 nM). Antagonists lead to suppression of the Ca^2+ influx after the addition of the agonist. % Inhibition compared with the maximum achievable inhibition is indicated.
The agonistic or antagonistic activity of substances can be determined on the bradykinin receptor 1 (B1R) of the species human and rat using the following assay. According to this assay, the Ca^2+ influx through the channel is quantified with the aid of a Ca^2+-sensitive dye (Fluo-4 type, Molecular Probes Europe BV, Leiden, Netherlands) using a Fluorescent Imaging Plate Reader (FLIPR, Molecular Devices, Sunnyvale, USA).
Chinese hamster ovary cells (CHO K1 cells) which have been stably transfected with the human B1R gene (hB1R cells) or with the B1R gene of the rat (rB1R cells) are used. For functional studies, the cells are plated out on black 96-well plates having a clear base (BD Biosciences, Heidelberg, Germany or Greiner, Frickenhausen, Germany) in a density of 20,000-35,000 cells/well. The cells are left overnight at 37° C. and with 5% CO2 in culture medium (hB1R cells: Nutrient Mixture Ham's F12, Gibco Invitrogen GmbH, Karlsruhe, Germany or DMEM, Sigma-Aldrich, Taufkirchen, Germany; rB1R cells: D-MEM/F12, Gibco Invitrogen GmbH, Karlsruhe, Germany), with 10 vol.% FBS (fetal bovine serum, Gibco Invitrogen GmbH, Karlsruhe, Germany or PAN Biotech GmbH, Aidenbach, Germany). On the following day, the cells are loaded for 60 minutes at 37° C. with 2.13 μM Fluo-4 (Molecular Probes Europe BV, Leiden, Netherlands) in HBSS buffer (Hank's buffered saline solution, Gibco Invitrogen GmbH, Karlsruhe, Germany) […] (Sigma-Aldrich, Taufkirchen, Germany) and 10 mM HEPES (Sigma-Aldrich, Taufkirchen, Germany). The plates are then washed twice with HBSS buffer, and HBSS buffer additionally containing 0.1% BSA (bovine serum albumin; Sigma-Aldrich, Taufkirchen, Germany), 5.6 mM glucose and 0.05% gelatin (Merck KGaA, Darmstadt, Germany) is added to the plates. After incubation for a further 20 minutes at room temperature, the plates are inserted into the FLIPR for Ca^2+ measurement. Alternatively, washing is carried out with buffer A (15 mM HEPES, 80 mM NaCl, 5 mM KCl, 1.2 mM CaCl2, 0.7 mM MgSO4, 2 g/l glucose, 2.5 mM probenecid) followed by loading with buffer A with added 2.5 μM Fluo-4 and 0.025% Pluronic F127 (Sigma-Aldrich, Taufkirchen, Germany). The cells are then washed twice with buffer A and incubated for 30 minutes at room temperature with buffer A additionally containing 0.05% BSA and 0.05% gelatin and are then inserted into the FLIPR for Ca^2+ measurement. The Ca^2+-dependent fluorescence is measured before and after the addition of substances (λex=488 nm, λem=540 nm). Quantification is carried out by measuring the highest fluorescence intensity (FC, fluorescence counts) over time.
The FLIPR protocol consists of two substance additions. Test substances (10 μM) are first pipetted onto the cells and the Ca^2+ influx is compared with the control (hB1R: Lys-Des-Arg^9-bradykinin>=50 nM; rB1R: Des-Arg^9-bradykinin 10 μM). This gives the activation in %, based on the Ca^2+ signal after addition of Lys-Des-Arg^9-bradykinin (>=50 nM) or Des-Arg^9-bradykinin (10 μM). After 10-20 minutes' incubation, Lys-Des-Arg^9-bradykinin (hB1R) or Des-Arg^9-bradykinin (rB1R) is applied in the concentration of the EC80, and the influx of Ca^2+ is likewise determined. Antagonists lead to suppression of the Ca^2+ influx. The % inhibition compared with the maximum achievable inhibition is calculated. […]

rat B1R = target: T2, rat B1R (Rattus norvegicus, UniProt P97583); experiment: FLIPR Ca2+ functional study on bradykinin receptor 1 (rB1R CHO K1 cells); format: cell-based; conditions: CHO-K1, % inhibition rat B1R at 10 μM, read-out: % inh. (rat B1R) 10 μM
T2 construct: expressed in transfected cells; host or cells: CHO K1 cells
T2 sequence (P97583 1-337): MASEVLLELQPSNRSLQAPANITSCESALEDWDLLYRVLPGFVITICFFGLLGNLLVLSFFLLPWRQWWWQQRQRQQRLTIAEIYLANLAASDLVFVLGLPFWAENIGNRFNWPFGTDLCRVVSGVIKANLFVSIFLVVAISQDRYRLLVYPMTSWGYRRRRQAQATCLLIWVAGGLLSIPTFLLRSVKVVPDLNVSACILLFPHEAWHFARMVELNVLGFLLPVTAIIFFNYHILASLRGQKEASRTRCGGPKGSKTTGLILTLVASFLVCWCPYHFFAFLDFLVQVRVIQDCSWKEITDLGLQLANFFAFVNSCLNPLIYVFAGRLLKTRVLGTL
Summary of the method: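 Antagonism was calculated as % of maximal inhibition of the Ca2+ rise triggered by agonist at EC80 (Lys-Des-Arg9-bradykinin for hB1R, Des-Arg9-bradykinin for rB1R), added 10-20 min after test compound (10 μM or serial dilutions for IC50) to Fluo-4-loaded transfected CHO K1 cells on FLIPR. Duplicates or triplicates, ≥2 independent runs.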

| inhibition at 10 µM (human B1R) | inhibition at 10 µM (rat B1R) | Structure (SMILES) |
| --- | --- | --- |
| 100% | 97% | COc1cc(C)c(S(=O)(=O)N(CCOc2nccc(N3CCC(OCCN4CCCC4)(c4cccnc4)CC3)n2)C2CC2)c(C)c1 [Example G-007, N-cyclopropyl-4-methoxy-2,6-dimethyl-N-[2-[[4-[4-(3-pyridyl)-4-(2-1-pyrrolidinylethoxy)-1-piperidinyl]-2-pyrimidinyl]oxy]ethyl]benzenesulfonamide] |
| 77% | 98% | COc1cc(C)c(S(=O)(=O)N(CCOc2nccc(N3CCC(O)(c4cccnc4)CC3)n2)C2CC2)c(C)c1 [Example G-008, N-cyclopropyl-N-[2-[[4-[4-hydroxy-4-(3-pyridyl)-1-piperidinyl]-2-pyrimidinyl]oxy]ethyl]-4-methoxy-2,6-dimethylbenzenesulfonamide] |
| 100% | 102% | COc1cc(C)c(S(=O)(=O)N(CCOc2nccc(N3CCC4(CCN(c5ccncc5)C4)C3)n2)C2CC2)c(C)c1 (stereo not shown) [Example G-014, N-cyclopropyl-4-methoxy-2,6-dimethyl-N-[2-[[4-[8-(4-pyridyl)-3,8-diazaspiro[4.4]nonan-3-yl]-2-pyrimidinyl]oxy]ethyl]benzenesulfonamide] |
| 99% | 95% | COc1cc(C)c(S(=O)(=O)N(CCOc2nccc(N3CCC4(CCC(N5CCC5)CC4)CC3)n2)C2CC2)c(C)c1 [Example G-015, N-[2-[[4-[9-(1-azetidinyl)-3-azaspiro[5.5]undecan-3-yl]-2-pyrimidinyl]oxy]ethyl]-N-cyclopropyl-4-methoxy-2,6-dimethylbenzenesulfonamide hydrochloride] |
| 96% | 99% | COc1cc(C)c(S(=O)(=O)N(CCOc2nccc(N3CCC4(CCC(Oc5ccncc5)CC4)CC3)n2)C2CC2)c(C)c1 [Example G-016, N-cyclopropyl-4-methoxy-2,6-dimethyl-N-[2-[[4-[9-(4-pyridyloxy)-3-azaspiro[5.5]undecan-3-yl]-2-pyrimidinyl]oxy]ethyl]benzenesulfonamide] |
| 100% | 102% | COc1cc(C)c(S(=O)(=O)N(CCOc2nccc(N3CCC4(CCN(c5ccncc5)CC4)C3)n2)C2CC2)c(C)c1 [Example G-019, N-cyclopropyl-4-methoxy-2,6-dimethyl-N-[2-[[4-[8-(4-pyridyl)-3,8-diazaspiro[4.5]decan-3-yl]-2-pyrimidinyl]oxy]ethyl]benzenesulfonamide] |

Further lines, the compound ahead of its results:

| Structure (SMILES) | inhibition at 10 µM (human B1R) | inhibition at 10 µM (rat B1R) |
| --- | --- | --- |
| Cc1cccc(Cl)c1S(=O)(=O)N(CCOc1nccc(N2CCC3(CCN(c4ccncc4)CC3)CC2)n1)C1CC1 [Example G-009, 2-chloro-N-cyclopropyl-6-methyl-N-[2-[[4-[9-(4-pyridyl)-3,9-diazaspiro[5.5]undecan-3-yl]-2-pyrimidinyl]oxy]ethyl]benzenesulfonamide] | 97% | 91% |
| O=S(=O)(c1ccccc1C(F)(F)F)N(CCOc1nccc(N2CCC3(CCN(c4ccncc4)CC3)CC2)n1)C1CC1 [Example G-010, N-cyclopropyl-N-[2-[[4-[9-(4-pyridyl)-3,9-diazaspiro[5.5]undecan-3-yl]-2-pyrimidinyl]oxy]ethyl]-2-(trifluoromethyl)benzenesulfonamide] | 98% | 89% |
| COc1cc(C)c(S(=O)(=O)N2C[C@H](F)C[C@H]2COc2nccc(N3CCC4(CCN(c5ccncc5)CC4)CC3)n2)c(C)c1 [Example G-011, 3-[2-[[(2S,4R)-4-fluoro-1-(4-methoxy-2,6-dimethylphenyl)sulfonyl-2-pyrrolidinyl]methoxy]-4-pyrimidinyl]-9-(4-pyridyl)-3,9-diazaspiro[5.5]undecane] | 99% | 99% |
| COc1cc(C)c(S(=O)(=O)N(CCOc2nccc(N3CCC(Oc4ccncc4)CC3)n2)C2CC2)c(C)c1 [Example G-012, N-cyclopropyl-4-methoxy-2,6-dimethyl-N-[2-[[4-[4-(4-pyridyloxy)-1-piperidinyl]-2-pyrimidinyl]oxy]ethyl]benzenesulfonamide] | 99% | 97% |
| COc1cc(C)c(S(=O)(=O)N(CCOc2nccc(N3CCc4cc(CN5CCC5)ccc4C3)n2)C2CC2)c(C)c1 [Example G-013, N-[2-[[4-[6-(1-azetidinylmethyl)-3,4-dihydro-1H-isoquinolin-2-yl]-2-pyrimidinyl]oxy]ethyl]-N-cyclopropyl-4-methoxy-2,6-dimethylbenzenesulfonamide] | 92% | 102% |
| COc1cc(C)c(S(=O)(=O)N(CCOc2nccc(N3CCC4(CCC(N5CC(F)(F)C5)CC4)CC3)n2)C2CC2)c(C)c1 [Example G-017, N-cyclopropyl-N-[2-[[4-[9-(3,3-difluoro-1-azetidinyl)-3-azaspiro[5.5]undecan-3-yl]-2-pyrimidinyl]oxy]ethyl]-4-methoxy-2,6-dimethylbenzenesulfonamide] | 22% | 103% |
| COc1cc(C)c(S(=O)(=O)N2CC(Oc3nccc(N4CCC5(CCN(c6ccncc6)CC5)CC4)n3)C2)c(C)c1 [Example G-018, 3-[2-[[1-(4-methoxy-2,6-dimethylphenyl)sulfonyl-3-azetidinyl]oxy]-4-pyrimidinyl]-9-(4-pyridyl)-3,9-diazaspiro[5.5]undecane] | 99% | 93% |
| COc1cc(C)c(S(=O)(=O)N(CCOc2nccc(N3CC(N4CCc5cc(CN6CCC6)ccc5C4)C3)n2)C2CC2)c(C)c1 [Example G-020, N-[2-[[4-[3-[6-(1-azetidinylmethyl)-3,4-dihydro-1H-isoquinolin-2-yl]-1-azetidinyl]-2-pyrimidinyl]oxy]ethyl]-N-cyclopropyl-4-methoxy-2,6-dimethylbenzenesulfonamide] | 95% | 101% |
